Measured values as given in patent publication US20240182495A1, “ANTIBACTERIAL COMPOUNDS” (JANSSEN SCIENCES IRELAND UNLIMITED COMPANY, priority 2021, published 2024).
Marks after values point to notes of the source that are not given here.

Test system: Mycobacterium tuberculosis strain (EH4.0, GFP-expressing; Test 2: H37Rv)
Assay: MIC determination against M. tuberculosis, Test 1 (and/or Test 2)
Assay type: cell-based
Conditions: 7 days incubation, fluorescence; for IC50: Mycobacterium tuberculosis, H37RV, 168 h

`CCc1nc2ccc(Cl)cn2c1C(=O)NCc1ccc(-c2nc3n(n2)CCN(S(=O)(=O)C(F)(F)F)C3)c(F)c1` [Compound 3] showed an IC50 of 61.7 nM.
With `CCc1nc2ncc(Cl)cn2c1C(=O)NCc1ccc(-c2nc3n(n2)CCN(S(=O)(=O)C(F)(F)F)C3)c(F)c1` [Compound 4] the IC50 was 12.6 nM.
For `O=C(NCc1ccc(-c2nc3n(n2)CCN(S(=O)(=O)C(F)(F)F)C3)c(F)c1)c1c(C(F)F)nc2ccc(Cl)cn12` [Compound 5], the IC50 was 229 nM.
In the case of `CCc1nc2nc(C)c(Cl)cn2c1C(=O)NCc1ccc(-c2nc3n(n2)CCN(S(=O)(=O)C(F)(F)F)C3)cc1` [Compound 8], the pIC50 is reported as 7.58.
`CCc1nc2cc(C)c(Cl)cn2c1C(=O)NCc1ccc(-c2nc3n(n2)CCN(S(=O)(=O)C(F)(F)F)C3)c(F)c1` [Compound 9] gave an IC50 of 363 nM.
`CCc1nc2c(Cl)c(OC)ccn2c1C(=O)NCc1ccc(-c2nc3n(n2)CCN(S(=O)(=O)C(F)(F)F)C3)c(F)c1` [Compound 11] showed an IC50 of 447 nM.
`CCc1nc2nc(NC)c(Cl)cn2c1C(=O)NCc1ccc(-c2nc3n(n2)CCN(S(=O)(=O)C(F)(F)F)C3)c(F)c1` [Compound 13] showed a pIC50 of less than 6.301.
For `CCc1nc2cc(OC)c(Cl)cn2c1C(=O)NCc1cnc(-c2nc3n(n2)CCN(S(=O)(=O)C(F)(F)F)C3)c(F)c1` [Compound 16], the IC50 was 501 nM.
`CCc1nc2ncc(F)cn2c1C(=O)NCc1ccc(-c2nc3n(n2)CCN(S(=O)(=O)C(F)(F)F)C3)c(F)c1` [Compound 17] gave an IC50 of 195 nM.
Compound `CCc1nc2nc3c(cn2c1C(=O)NCc1ccc(-c2nc4n(n2)CCN(S(=O)(=O)C(F)(F)F)C4)c(F)c1)CCOC3` [Compound 18] has an IC50 of 151 nM.
`CCc1nc2cc(Cl)c(C)cn2c1C(=O)NCc1cnc(-c2nc3n(n2)CCN(S(=O)(=O)C(F)(F)F)C3)c(F)c1` [Compound 19] gave a pIC50 of 6.48.
Work on `CCc1nc2cc(C)c(Cl)cn2c1C(=O)NCc1cnc(-c2nc3n(n2)CCN(S(=O)(=O)C(F)(F)F)C3)c(F)c1` [Compound 20] yielded an IC50 of 501 nM.
`CCc1nc2c(F)cc(Cl)cn2c1C(=O)NCc1ccc(-c2nc3n(n2)CCN(S(=O)(=O)C(F)(F)F)C3)cc1` [Compound 21] showed an IC50 of 40.7 nM.
`CCc1nc2ccc(F)cn2c1C(=O)NCc1ccc(-c2nc3n(n2)CCN(S(=O)(=O)C(F)(F)F)C3)cc1` [Compound 22] gave an IC50 of 44.7 nM.
Compound `CCc1nc2cc(C)c(C)cn2c1C(=O)NCc1ccc(-c2nc3n(n2)CCN(S(=O)(=O)C(F)(F)F)C3)cc1` [Compound 23] has an IC50 of 32.4 nM.
`CCc1nc2cc(Cl)c(C)cn2c1C(=O)NCc1ccc(-c2nc3n(n2)CCN(S(=O)(=O)C(F)(F)F)C3)cc1` [Compound 25] gave an IC50 of 182 nM.
`CCc1nc2ncc(C(C)C)cn2c1C(=O)NCc1ccc(-c2nc3n(n2)CCN(S(=O)(=O)C(F)(F)F)C3)cc1` [Compound 26] showed an IC50 of 245 nM.
Compound `CCc1nc2ccc(C3CC3)cn2c1C(=O)NCc1ccc(-c2nc3n(n2)CCN(S(=O)(=O)C(F)(F)F)C3)cc1` [Compound 27] has an IC50 of 138 nM.
`CCc1nc2ncc(C3CC3)cn2c1C(=O)NCc1ccc(-c2nc3n(n2)CCN(S(=O)(=O)C(F)(F)F)C3)cc1` [Compound 28] showed an IC50 of 53.7 nM.
`Cc1cnc2nc(C)c(C(=O)NCc3ccc(-c4nc5n(n4)CCN(S(=O)(=O)C(F)(F)F)C5)cc3)n2c1` [Compound 29] was tested, and the IC50 was 21.9 nM.
`Cc1ccc2nc(C3CC3)c(C(=O)NCc3ccc(-c4nc5n(n4)CCN(S(=O)(=O)C(F)(F)F)C5)cc3)n2c1` [Compound 30] showed an IC50 of 41.7 nM.
Work on `CCc1nc2n(c1C(=O)NCc1ccc(-c3nc4n(n3)CCN(S(=O)(=O)C(F)(F)F)C4)cc1)CCCC2` [Compound 31] yielded an IC50 of 24 nM.
`Cc1cn2c(C(=O)NCc3ccc(-c4nc5n(n4)CCN(S(=O)(=O)C(F)(F)F)C5)cc3)c(C)nc2s1` [Compound 32] gave an IC50 of 60.3 nM.
For `CCc1nc2nc(C)c(C)cn2c1C(=O)NCc1ccc(-c2nc3n(n2)CCN(S(=O)(=O)C(F)(F)F)C3)cc1` [Compound 33], the IC50 was 12.9 nM.
`Cc1ccc2nc(C)c(C(=O)NCc3ccc(-c4nc5n(n4)CCN(S(=O)(=O)C(F)(F)F)C5)cc3)n2c1` [Compound 34] gave an IC50 of 12.6 nM.
`CCc1nc2ccc(C(C)C)cn2c1C(=O)NCc1ccc(-c2nc3n(n2)CCN(S(=O)(=O)C(F)(F)F)C3)cc1` [Compound 35] was tested, and the IC50 was greater than 500 nM.
With `CCc1nc2sc(C)cn2c1C(=O)NCc1ccc(-c2nc3n(n2)CCN(S(=O)(=O)C(F)(F)F)C3)cc1` [Compound 36] the IC50 was 16.2 nM.
`CCc1nc2ncc(C)cn2c1C(=O)NCc1ccc(-c2nc3n(n2)CCNC3)cc1` [Compound 37] gave an IC50 of 457 nM.
`Cc1nc2sc(Cl)cn2c1C(=O)NCc1ccc(-c2nc3n(n2)CCN(S(=O)(=O)C(F)(F)F)C3)cc1` [Compound 38] was tested, and the IC50 was 282 nM.
`CCc1nc2sc(Cl)cn2c1C(=O)NCc1ccc(-c2nc3n(n2)CCN(S(=O)(=O)C(F)(F)F)C3)cc1` [Compound 39] showed an IC50 of 123 nM.
Work on `CCc1nc2ncc(C)cn2c1C(=O)NCc1ccc(-c2nc3n(n2)CCN(C(C)=O)C3)cc1` [Compound 40] yielded an IC50 of 501 nM.
`CCc1nc2ncc(C)cn2c1C(=O)NCc1ccc(-c2nc3n(n2)CCN(S(=O)(=O)N(C)C)C3)cc1` [Compound 41] was tested, and the IC50 was 45.7 nM.
In the case of `CCc1nc2ncc(C)cn2c1C(=O)NCc1ccc(-c2nc3n(n2)CCN(C(=O)C(F)(F)F)C3)cc1` [Compound 43], the IC50 is reported as 282 nM.
`CCc1nc2nc3c(cn2c1C(=O)NCc1ccc(-c2nc4n(n2)CCN(S(=O)(=O)C(F)(F)F)C4)cc1)CCC3` [Compound 45] showed an IC50 of 15.1 nM.
Compound `CCc1nc2ccc(C)cn2c1C(=O)NCc1ccc(-c2nc3n(n2)CCN(C(C)=O)C3)cc1` [Compound 46] has an IC50 of 282 nM.
`CCc1nc2ccc(C)cn2c1C(=O)NCc1ccc(-c2nc3n(n2)CCN(S(=O)(=O)N2CCCC2)C3)cc1` [Compound 48] was tested, and the IC50 was 25.7 nM.
In the case of `CCc1nc2ncc(C)cn2c1C(=O)NCc1ccc(-c2nc3n(n2)CCN(C)C3)cc1` [Compound 50], the IC50 is reported as 170 nM.
Compound `CCc1nc2ccc(C)cn2c1C(=O)NCc1ccc(-c2nc3n(n2)CCN(S(=O)(=O)N(C)C)C3)cc1` [Compound 51] has an IC50 of 41.7 nM.
`CCc1nc2ccc(C)cn2c1C(=O)NCc1ccc(-c2nc3n(n2)CCNC3)cc1` [Compound 52] was tested, and the IC50 was 209 nM.
In the case of `CCc1nc2ccc(C)cn2c1C(=O)NCc1ccc(-c2nc3n(n2)CCN(C(=O)C(F)(F)F)C3)cc1` [Compound 53], the IC50 is reported as 120 nM.
`CCc1nc2ncc(C)cn2c1C(=O)NCc1ccc(-c2nc3n(n2)CCN(CCOC)C3)cc1` [Compound 54] was tested, and the IC50 was 132 nM.
For `CCc1nc2ccc(C)cn2c1C(=O)NCc1ccc(-c2nc3n(n2)CCN(CCOC)C3)cc1` [Compound 55], the IC50 was 50.1 nM.
`CCc1nc2ccc(C)cn2c1C(=O)NCc1ccc(-c2nc3n(n2)CCN(C)C3)cc1` [Compound 56] showed an IC50 of 74.1 nM.
For `CCc1nc2ncc(C)cn2c1C(=O)NCc1ccc(-c2nc3n(n2)CCN(S(=O)(=O)C(F)(F)F)C3)s1` [Compound 57], the IC50 was 26.3 nM.
With `CCc1nc2ncc(C)cn2c1C(=O)NCc1ccc(C2CN(c3nc4n(n3)CCN(S(=O)(=O)C(F)(F)F)C4)C2)cc1` [Compound 58] the IC50 was 123 nM.
Compound `CCc1nc2ncc(C)cn2c1C(=O)NCc1ccc(C2CCN(c3nc4n(n3)CCN(S(=O)(=O)C(F)(F)F)C4)CC2)cc1` [Compound 59] has an IC50 of 110 nM.
In the case of `CCc1nc2ncc(C)cn2c1C(=O)NCc1ccc(N2CCC(c3nc4n(n3)CCN(S(=O)(=O)C(F)(F)F)C4)CC2)cc1` [Compound 60], the IC50 is reported as 93.3 nM.
`CCc1nc2ncc(C)cn2c1C(=O)NCc1ccc(-c2nc3n(n2)CCN(CCC#N)C3)cc1` [Compound 61] gave an IC50 of 389 nM.
`CCc1nc2ccc(C)cn2c1C(=O)NCc1ccc(-c2nc3n(n2)CCN(CCC#N)C3)cc1` [Compound 62] was tested, and the IC50 was 174 nM.
`CCc1nc2n(c1C(=O)NCc1ccc(-c3nc4n(n3)CCN(S(=O)(=O)C(F)(F)F)C4)cc1)CCOC2` [Compound 63] showed an IC50 of 191 nM.
`CCc1nc2ncc(C)cn2c1C(=O)NCc1ncc(-c2nc3n(n2)CCN(S(=O)(=O)C(F)(F)F)C3)s1` [Compound 64] gave an IC50 of 132 nM.
Compound `CCc1nc2n(c1C(=O)NCc1ccc(-c3nc4n(n3)CCN(S(=O)(=O)C(F)(F)F)C4)cc1)CCN(C)C2` [Compound 65] has an IC50 of 331 nM.
For `CCc1nc2ncc(C)cn2c1C(=O)NCc1cccc(-c2nc3n(n2)CCN(S(=O)(=O)C(F)(F)F)C3)c1` [Compound 67], the IC50 was 162 nM.
`CCc1nc2ncc(C)cn2c1C(=O)NC1(c2ccc(-c3nc4n(n3)CCN(S(=O)(=O)C(F)(F)F)C4)cc2)CC1` [Compound 68] was tested, and the pIC50 was <6.3*.
For `CCc1nc2ncc(C)cn2c1C(=O)NCc1ccc(C2CCN(c3nc4n(n3)CCN(S(=O)(=O)C(F)(F)F)C4)C2)cc1` (stereo not shown) [Compound 69], the IC50 was 15.1 nM.
Work on `CCc1nc2ncc(C)cn2c1C(=O)NCc1ccc(N2CCN(c3nc4n(n3)CCN(S(=O)(=O)C(F)(F)F)C4)CC2)cc1` [Compound 70] yielded an IC50 of 91.2 nM.
With `CCc1nc2ncc(C)cn2c1C(=O)NCc1cccc(Cc2nc3n(n2)CCN(S(=O)(=O)C(F)(F)F)C3)c1` [Compound 71] the pIC50 was <6.3*.
`CCc1nc2ncc(C)cn2c1C(=O)NCc1coc(-c2nc3n(n2)CCN(S(=O)(=O)C(F)(F)F)C3)n1` [Compound 72] was tested, and the pIC50 was less than 6.3.
Work on `CCc1nc2ncc(C)cn2c1C(=O)NCc1csc(-c2nc3n(n2)CCN(S(=O)(=O)C(F)(F)F)C3)n1` [Compound 73] yielded an IC50 greater than 501 nM.
`CCc1nc2ncc(C)cn2c1C(=O)NCc1cnc(-c2nc3n(n2)CCN(S(=O)(=O)C(F)(F)F)C3)s1` [Compound 74] gave an IC50 of 309 nM.
With `CCc1nc2ncc(C)cn2c1C(=O)NCc1nc(-c2nc3n(n2)CCN(S(=O)(=O)C(F)(F)F)C3)cs1` [Compound 75] the IC50 was greater than 501 nM.
`CCc1nc2ncc(C)cn2c1C(=O)NCc1nnc(-c2nc3n(n2)CCN(S(=O)(=O)C(F)(F)F)C3)s1` [Compound 76] was tested, and the IC50 was greater than 501 nM.
`CCc1nc2ncc(Cl)cn2c1C(=O)NCc1cnc(-c2nc3n(n2)CCN(S(=O)(=O)C(F)(F)F)C3)c(F)c1` [Compound 77] was tested, and the IC50 was 457 nM.
For `CCc1nc2cc(N)c(Cl)cn2c1C(=O)NCc1cnc(-c2nc3n(n2)CCN(S(=O)(=O)C(F)(F)F)C3)c(F)c1` [Compound 78], the IC50 was greater than 501 nM.
